Results reported in patent EP1891948A1, “Treatment of neurological and neuropsychological disorders” (Probiodrug AG, priority 2000, dated 2002).

Tests used:
WistarF/Han (WF) rats [1] = test: 1h and 12h food intake after combined i.c.v. treatment (Example 3); format: in vivo; settings: Fig. 8
Procedure: (§1) Animals. Male WistarF/Han (WF) rats (Central Animal Laboratory, Hannover Medical School, Hannover, Germany, see http://www.mh-hannover.de/institut/tierlabor/wf.htm for details), weighing 330-370g, were housed in a sound-proof, temperature controlled (24.0±0.5°C) room under specific pathogen free conditions with a 12/12h dark/light cycle (lights on at 07.00 with illumination level of 80 Lux). Food (Altromin lab chow pellets) and tap water were available ad libitum. Under ketamine/xylasine (100/5 mg/kg, i.p.) anesthesia, the rats were fixed in a Kopf stereotaxic frame and implanted with cannulae (Plastic One, Inc., Roanoke, VA, USA) above the lateral ventricle. All research and animal care procedures were approved by the Lower Saxony district government (Hannover, Germany) and followed principles described in the European Community's Council Directive of 24 November 1986 (86/609/EEC).
Surgery and i.c.v. application. For surgery, rats were anesthetized and prepared with i.c.v. cannulae (coordinates: A:-0.7mm caudal, L:1.4mm lateral to bregma; and V3.2mm ventral to the skull surface; tooth bar +3.0 above ear bars) using standard stereotaxic procedures as described in detail elsewhere (von Hörsten et al., 1998a,b,c). After a 7-day recovery period, successful ventricle cannulation was confirmed by an angiotensin drinking response (von Hörsten et al., 1998a). Rats showing a positive drinking response (n=59) were then habituated to experimental handling by daily sham injections for seven days.
Animals were randomly divided into two sets of four experimental groups (n=5-6/group), which completed different consecutive SI test of anxiety. […] The time spent in active social interaction (SI-time), 1h and 12h food-intake were measured. […]
Statistical analysis. Data from repeated observations (food intake) were analyzed by two-way analyses of variance for repeated measures (ANOVA) (factors: "substrain" and "food intake" as repeated measure). Data obtained from simple measures such as DP IV activity or SI time were analyzed by one-way (factor: "substrain") ANOVA. […]

WistarF/Han (WF) rats [2] = test: Social interaction (SI) test with Y1R antagonist pre-treatment (Example 4); format: in vivo; settings: i.c.v., isoleucyl thiazolidine 50nmol and/or NPY 0.8nmol, without antagonist; Fig. 10
Procedure: as §1, with “330±31 g±SD,” for “330-370g,”
Surgery and i.c.v. application. […]
Animals were randomly divided into eight experimental groups (n=6-8/group), which completed one SI test of anxiety: (1) aCSF+aCSF+aCSF; (2) BIBP+aCSF+aCSF; (3) aCSF+isoleucyl thiazolidine+aCSF; (4) BIBP+isoleucyl thiazolidine+aCSF; (5) aCSF+aCSF+NPY; (6) BIBP+aCSF+NPY; (7) aCSF+P32/89+NPY; (8) BIBP+isoleucyl thiazolidine+NPY. […] The time spent in active social interaction (SI-time), 1h, and 12h food-intake were measured. […]
Social interaction (SI) test. […] Behavior was monitored using a video camera placed above the field inside the testing/isolation box. The SI behavior of both rats was recorded on-line from a monitor placed outside on top of the box. The following parameters were scored by an observer (HPN) unaware of the substrain of rats: duration of time spent in sniffing, following, crawling under and over other rats, but not passive body contact (resting, sleeping). […]
Statistical analysis. Data obtained from the measures SI time and 1h food intake were analyzed by one-way (factor: "treatment") ANOVA. […]

CCC(C)C(N)C(=O)N1CCSC1 (stereo not drawn) [isoleucyl thiazolidine]
dose at which the 1h feeding effect reaches significance (WistarF/Han (WF) rats [1]): 0.05 nmol | amount of food eaten within 1h (WistarF/Han (WF) rats [1]; single agents or combination, isoleucyl thiazolidine 5pmol-500nmol, NPY 50pmol-1.6nmol): mild feeding effect | anxiolytic-like effect in the SI test (SI-time) (WistarF/Han (WF) rats [2]): acts not anxiolytic-like
